Results from patent US20250186405A1, “Compound For Use In Treating Narcolepsy” (Alkermes, Inc., priority 2023, published 2025).

Test system: healthy adult subjects
Experiment: Part 1 SAD: treatment-emergent adverse events after single oral dose (N = 6 per dose)
Protocol: Part 1 of the study is a SAD evaluation in healthy subjects consisting of 6 cohorts: Cohorts 1-6 received powder-in-capsule or matching placebo. There were approximately 8 subjects per cohort. Dose levels were as follows:
No food was given for at least 4 hours after dose administration. Water was allowed ad libitum except for the time 1 hour before and 1 hour after study drug administration. Safety assessments including AEs, safety ECGs, vital signs, and clinical laboratory tests were conducted, and plasma PK samples were collected.
Adverse events (AEs) and serious adverse events (SAEs) were monitored continuously until the completion of the study.

CS(=O)(=O)N[C@H]1CCCN2C(=O)COc3ccccc3C3CCC(CC3)OCC12 (stereo partly drawn) [Compound A, N-[(4S,4aR,7α,10α)-1,2,3,4,4a,5,7,8,9,10,16,17-dodecahydro-17-oxo-7,10-ethanopyrido[1,2-d][1,7,4]benzodioxaazacyclotridecin-4-yl]methanesulfonamide]
AE Leading to Study Drug Discontinuation (1 mg): 0 n
Any SAEs (1 mg): 0 n
Any TEAE (1 mg): 4 n
Death (1 mg): 0 n
TEAE Anxiety (1 mg): 0 n
TEAE Aspartate aminotransferase increased (1 mg): 0 n
TEAE Back pain (1 mg): 0 n
TEAE Blood pressure increased (1 mg): 0 n
TEAE Dermatitis contact (1 mg): 1 n
TEAE Dizziness (1 mg): 0 n
TEAE Fatigue (1 mg): 0 n
TEAE Headache (1 mg): 0 n
TEAE Hot flush (1 mg): 0 n
TEAE Hypervigilance (1 mg): 0 n
TEAE Insomnia (1 mg): 0 n
TEAE Metamorphopsia (1 mg): 0 n
TEAE Nausea (1 mg): 0 n
TEAE Oropharyngeal pain (1 mg): 0 n
TEAE Pharyngitis (1 mg): 1 n
TEAE Pollakiuria (1 mg): 0 n
TEAE Skin hyperpigmentation (1 mg): 1 n
TEAE Upper respiratory tract infection (1 mg): 0 n
TEAE Urinary incontinence (1 mg): 0 n
TEAE Vision blurred (1 mg): 0 n
TEAE by Highest Relationship: Not Related (1 mg): 4 n
TEAE by Highest Relationship: Related (1 mg): 0 n
TEAE by Highest Severity: Mild (1 mg): 1 n
TEAE by Highest Severity: Moderate (1 mg): 3 n
TEAE by Highest Severity: Severe (1 mg): 0 n
AE Leading to Study Drug Discontinuation (3 mg): 0 n
Any SAEs (3 mg): 0 n
Any TEAE (3 mg): 0 n
Death (3 mg): 0 n
TEAE Anxiety (3 mg): 0 n
TEAE Aspartate aminotransferase increased (3 mg): 0 n
TEAE Back pain (3 mg): 0 n
TEAE Blood pressure increased (3 mg): 0 n
TEAE Dermatitis contact (3 mg): 0 n
TEAE Dizziness (3 mg): 0 n
TEAE Fatigue (3 mg): 0 n
TEAE Headache (3 mg): 0 n
TEAE Hot flush (3 mg): 0 n
TEAE Hypervigilance (3 mg): 0 n
TEAE Insomnia (3 mg): 0 n
TEAE Metamorphopsia (3 mg): 0 n
TEAE Nausea (3 mg): 0 n
TEAE Oropharyngeal pain (3 mg): 0 n
TEAE Pharyngitis (3 mg): 0 n
TEAE Pollakiuria (3 mg): 0 n
TEAE Skin hyperpigmentation (3 mg): 0 n
TEAE Upper respiratory tract infection (3 mg): 0 n
TEAE Urinary incontinence (3 mg): 0 n
TEAE Vision blurred (3 mg): 0 n
TEAE by Highest Relationship: Not Related (3 mg): 0 n
TEAE by Highest Relationship: Related (3 mg): 0 n
TEAE by Highest Severity: Mild (3 mg): 0 n
TEAE by Highest Severity: Moderate (3 mg): 0 n
TEAE by Highest Severity: Severe (3 mg): 0 n
AE Leading to Study Drug Discontinuation (8 mg): 0 n
Any SAEs (8 mg): 0 n
Any TEAE (8 mg): 1 n
Death (8 mg): 0 n
TEAE Anxiety (8 mg): 0 n
TEAE Aspartate aminotransferase increased (8 mg): 0 n
TEAE Back pain (8 mg): 0 n
TEAE Blood pressure increased (8 mg): 0 n
TEAE Dermatitis contact (8 mg): 0 n
TEAE Dizziness (8 mg): 0 n
TEAE Fatigue (8 mg): 0 n
TEAE Headache (8 mg): 0 n
TEAE Hot flush (8 mg): 0 n
TEAE Hypervigilance (8 mg): 0 n
TEAE Insomnia (8 mg): 0 n
TEAE Metamorphopsia (8 mg): 0 n
TEAE Nausea (8 mg): 0 n
TEAE Oropharyngeal pain (8 mg): 0 n
TEAE Pharyngitis (8 mg): 0 n
TEAE Pollakiuria (8 mg): 0 n
TEAE Skin hyperpigmentation (8 mg): 0 n
TEAE Upper respiratory tract infection (8 mg): 1 n
TEAE Urinary incontinence (8 mg): 0 n
TEAE Vision blurred (8 mg): 0 n
TEAE by Highest Relationship: Not Related (8 mg): 1 n
TEAE by Highest Relationship: Related (8 mg): 0 n
TEAE by Highest Severity: Mild (8 mg): 1 n
TEAE by Highest Severity: Moderate (8 mg): 0 n
TEAE by Highest Severity: Severe (8 mg): 0 n
AE Leading to Study Drug Discontinuation (15 mg): 0 n
Any SAEs (15 mg): 0 n
Any TEAE (15 mg): 4 n
Death (15 mg): 0 n
TEAE Anxiety (15 mg): 1 n
TEAE Aspartate aminotransferase increased (15 mg): 0 n
TEAE Back pain (15 mg): 0 n
TEAE Blood pressure increased (15 mg): 0 n
TEAE Dermatitis contact (15 mg): 0 n
TEAE Dizziness (15 mg): 2 n
TEAE Fatigue (15 mg): 0 n
TEAE Headache (15 mg): 0 n
TEAE Hot flush (15 mg): 1 n
TEAE Hypervigilance (15 mg): 1 n
TEAE Insomnia (15 mg): 1 n
TEAE Metamorphopsia (15 mg): 1 n
TEAE Nausea (15 mg): 0 n
TEAE Oropharyngeal pain (15 mg): 0 n
TEAE Pharyngitis (15 mg): 0 n
TEAE Pollakiuria (15 mg): 1 n
TEAE Skin hyperpigmentation (15 mg): 0 n
TEAE Upper respiratory tract infection (15 mg): 0 n
TEAE Urinary incontinence (15 mg): 0 n
TEAE Vision blurred (15 mg): 1 n
TEAE by Highest Relationship: Not Related (15 mg): 0 n
TEAE by Highest Relationship: Related (15 mg): 4 n
TEAE by Highest Severity: Mild (15 mg): 4 n
TEAE by Highest Severity: Moderate (15 mg): 0 n
TEAE by Highest Severity: Severe (15 mg): 0 n
AE Leading to Study Drug Discontinuation (25 mg): 0 n
Any SAEs (25 mg): 0 n
Any TEAE (25 mg): 4 n
Death (25 mg): 0 n
TEAE Anxiety (25 mg): 0 n
TEAE Aspartate aminotransferase increased (25 mg): 0 n
TEAE Back pain (25 mg): 0 n
TEAE Blood pressure increased (25 mg): 0 n
TEAE Dermatitis contact (25 mg): 0 n
TEAE Dizziness (25 mg): 4 n
TEAE Fatigue (25 mg): 1 n
TEAE Headache (25 mg): 0 n
TEAE Hot flush (25 mg): 0 n
TEAE Hypervigilance (25 mg): 0 n
TEAE Insomnia (25 mg): 0 n
TEAE Metamorphopsia (25 mg): 0 n
TEAE Nausea (25 mg): 0 n
TEAE Oropharyngeal pain (25 mg): 1 n
TEAE Pharyngitis (25 mg): 0 n
TEAE Pollakiuria (25 mg): 1 n
TEAE Skin hyperpigmentation (25 mg): 0 n
TEAE Upper respiratory tract infection (25 mg): 0 n
TEAE Urinary incontinence (25 mg): 0 n
TEAE Vision blurred (25 mg): 0 n
TEAE by Highest Relationship: Not Related (25 mg): 0 n
TEAE by Highest Relationship: Related (25 mg): 4 n
TEAE by Highest Severity: Mild (25 mg): 4 n
TEAE by Highest Severity: Moderate (25 mg): 0 n
TEAE by Highest Severity: Severe (25 mg): 0 n
AE Leading to Study Drug Discontinuation (50 mg): 0 n
Any SAEs (50 mg): 0 n
Any TEAE (50 mg): 2 n
Death (50 mg): 0 n
TEAE Anxiety (50 mg): 0 n
TEAE Aspartate aminotransferase increased (50 mg): 1 n
TEAE Back pain (50 mg): 0 n
TEAE Blood pressure increased (50 mg): 1 n
TEAE Dermatitis contact (50 mg): 0 n
TEAE Dizziness (50 mg): 2 n
TEAE Fatigue (50 mg): 0 n
TEAE Headache (50 mg): 1 n
TEAE Hot flush (50 mg): 0 n
TEAE Hypervigilance (50 mg): 0 n
TEAE Insomnia (50 mg): 0 n
TEAE Metamorphopsia (50 mg): 0 n
TEAE Nausea (50 mg): 2 n
TEAE Oropharyngeal pain (50 mg): 0 n
TEAE Pharyngitis (50 mg): 0 n
TEAE Pollakiuria (50 mg): 2 n
TEAE Skin hyperpigmentation (50 mg): 0 n
TEAE Upper respiratory tract infection (50 mg): 0 n
TEAE Urinary incontinence (50 mg): 1 n
TEAE Vision blurred (50 mg): 1 n
TEAE by Highest Relationship: Not Related (50 mg): 0 n
TEAE by Highest Relationship: Related (50 mg): 2 n
TEAE by Highest Severity: Mild (50 mg): 1 n
TEAE by Highest Severity: Moderate (50 mg): 1 n
TEAE by Highest Severity: Severe (50 mg): 0 n
AE Leading to Study Drug Discontinuation (Total (N = 36)): 0 n
Any SAEs (Total (N = 36)): 0 n
Any TEAE (Total (N = 36)): 15 n
Death (Total (N = 36)): 0 n
TEAE Anxiety (Total (N = 36)): 1 n
TEAE Aspartate aminotransferase increased (Total (N = 36)): 1 n
TEAE Back pain (Total (N = 36)): 0 n
TEAE Blood pressure increased (Total (N = 36)): 1 n
TEAE Dermatitis contact (Total (N = 36)): 1 n
TEAE Dizziness (Total (N = 36)): 8 n
TEAE Fatigue (Total (N = 36)): 1 n
TEAE Headache (Total (N = 36)): 1 n
TEAE Hot flush (Total (N = 36)): 1 n
TEAE Hypervigilance (Total (N = 36)): 1 n
TEAE Insomnia (Total (N = 36)): 1 n
TEAE Metamorphopsia (Total (N = 36)): 1 n
TEAE Nausea (Total (N = 36)): 2 n
TEAE Oropharyngeal pain (Total (N = 36)): 1 n
TEAE Pharyngitis (Total (N = 36)): 1 n
TEAE Pollakiuria (Total (N = 36)): 4 n
TEAE Skin hyperpigmentation (Total (N = 36)): 1 n
TEAE Upper respiratory tract infection (Total (N = 36)): 1 n
TEAE Urinary incontinence (Total (N = 36)): 1 n
TEAE Vision blurred (Total (N = 36)): 2 n
TEAE by Highest Relationship: Not Related (Total (N = 36)): 5 n
TEAE by Highest Relationship: Related (Total (N = 36)): 10 n
TEAE by Highest Severity: Mild (Total (N = 36)): 11 n
TEAE by Highest Severity: Moderate (Total (N = 36)): 4 n
TEAE by Highest Severity: Severe (Total (N = 36)): 0 n
Tolerability (single doses 1 to 50 mg): well tolerated
